Test results reported in patent publication US7071297B2, “Tolerogenic peptides from myelin basic protein” (Apitope Technology (Bristol) Limited, priority 2002, dated 2006).
Like-named read-outs stand apart in the source and are kept apart here.

Tests used:
T cell clone MS60:D2 = assay: Presentation of nested MBP peptides by fixed APC (Mgar cells) to T cell clone MS60:D2, proliferation assay; type: cell-based, human; conditions: p-formaldehyde fixed Mgar (HLA-DR2+ve) cells, T cell clone MS60:D2, 3H-thymidine uptake, FIG. 1
I-A^S = molecular target: T1, I-A^S (Mus musculus, UniProt P06345+P14437); conditions: cited from earlier work
T1 sequence (P14437 1-233): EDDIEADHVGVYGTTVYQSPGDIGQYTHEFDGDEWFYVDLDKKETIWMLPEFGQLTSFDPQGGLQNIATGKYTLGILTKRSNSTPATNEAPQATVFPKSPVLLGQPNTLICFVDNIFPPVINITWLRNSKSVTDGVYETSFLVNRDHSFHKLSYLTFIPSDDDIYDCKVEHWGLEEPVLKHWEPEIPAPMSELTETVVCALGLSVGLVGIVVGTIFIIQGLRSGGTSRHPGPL
T1 sequence (P06345 28-263): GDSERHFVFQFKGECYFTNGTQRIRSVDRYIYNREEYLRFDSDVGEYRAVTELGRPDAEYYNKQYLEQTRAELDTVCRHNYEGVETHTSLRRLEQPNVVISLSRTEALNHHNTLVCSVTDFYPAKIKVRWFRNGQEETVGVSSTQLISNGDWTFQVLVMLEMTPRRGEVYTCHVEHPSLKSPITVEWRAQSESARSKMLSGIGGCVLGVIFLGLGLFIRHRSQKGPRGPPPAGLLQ

[1] = cited from earlier work; for induction of tolerance: administered in solution
T cell clone N5 = assay: Presentation of MBP peptide 140-154 by fixed APC to T cell clone N5, proliferation assay; type: cell-based, human; conditions: T cell clone N5, FIG. 2
Protocol: MBP-specific T cell lines (TCL) are generated from 8 MS patients and 2 healthy control donors. PBMC from each subject are separated as described above and plated out at 1×10^6 cells/ml in 6-well plates in the presence of MBP (50 μg/ml); a portion of PBMC from each subject is regularly frozen and stored for subsequent restimulations. Seven days later the cells are fed with fresh medium containing 2% IL-2 (Lymphocult-HT; Biotest LTD., Birmingham, UK), and on day 12 of culture all cells are restimulated with antigen, IL-2 and irradiated (2500 Rad) autologous PBMC as a source of antigen presenting cells (APC), at a cell ratio of 1T cell:5 APC. Cells are expanded in IL-2 every 3-4 days, and on day 14 are restimulated with antigen, IL-2 and PBMC, as described above. On the day of the first restimulation cells are examined for specific proliferation to MBP. Briefly, 2×10^4 T cells and 1×10^5 irradiated autologous PBMC are cultured in triplicate, in 96-well round-bottom plates, in the presence of MBP. […]
Live or p-formaldehyde fixed Mgar (HLA-DR2+ve) cells were incubated with peptides in serum or in serum alone, together with T cells. The T cell proliferative response was measured by ^3H-thymidine uptake as follows. […] [^3H]-Thymidine incorporation is determined using a Microbeta liquid scintillation counter (LKB-Wallac). […]

[2] = system: lymph node cells of HLA:DR2 transgenic mice; assay: Induction of tolerance in HLA:DR2 transgenic mouse, lymph node proliferation assay; type: in vivo

Substance: KSAHKGFKGVDAQGT (listed as Homo sapiens) [MBP 135-149, myelin basic protein peptide 135-149]
- presentation by fixed APC to T cells without further processing (apitope) (T cell clone MS60:D2): apitopes

Substance: MBP[89-101]: myelin basic protein (MBP) peptide 89-101, an immunodominant antigen after immunisation (PHLIRLFSRDAPG; UniProt P04370 89-101, looked up, fragment)
- affinity of binding to I-A^S (I-A^S): relatively high affinity
- induction of tolerance [1]: not tolerogenic
- induction of tolerance ([1]; listed as 89-101): ineffective at inducing tolerance
- immunogenicity (priming for T cell reactivity and induction of EAE) ([1]; after immunisation): very effective immunogen

Substance: KGFKGVDAQGTLSKI (listed as Homo sapiens) [MBP 139-153, myelin basic protein peptide 139-153]
- presentation by fixed APC to T cells without further processing (apitope) (T cell clone MS60:D2): apitopes

Substance: SAHKGFKGVDAQGTL (listed as Homo sapiens) [MBP 136-150, myelin basic protein peptide 136-150]
- presentation by fixed APC to T cells without further processing (apitope) (T cell clone MS60:D2): apitopes

Substance: YKSAHKGFKGVDAQG (listed as Homo sapiens) [MBP 134-148, myelin basic protein peptide 134-148]
- presentation by fixed APC to T cells without further processing (apitope) (T cell clone MS60:D2): apitopes

Substance: GFKGVDAQGTLSKIF (listed as Homo sapiens) [MBP 140-154, myelin basic protein peptide 140-154]
- presentation by fixed APC without further processing (T cell clone N5): can be presented by fixed APC without further processing
- presentation by fixed APC to T cells without further processing (apitope) (T cell clone MS60:D2): apitopes
- SI values of the one pre-treated mouse that failed to show induction of tolerance ([2]; Group B, over peptide concentration range 1-150 ugml^-1): 12-15
- Stimulation Index (SI) median of lymphocyte proliferation ([2]; Group B: 100 ug peptide i.n. days -8, -6, -4, immunised with same peptide in CFA, restimulated with 150 ugml^-1 peptide): 3
- induction of tolerance ([2]; intranasal pre-treatment, lymphocytes from HLA-DR2 mice): induced tolerance

Substance: HKGFKGVDAQGTLSK (listed as Homo sapiens) [MBP 138-152, myelin basic protein peptide 138-152]
- presentation by fixed APC to T cells without further processing (apitope) (T cell clone MS60:D2): apitopes

Substance: AHKGFKGVDAQGTLS (listed as Homo sapiens) [MBP 137-151, myelin basic protein peptide 137-151]
- presentation by fixed APC to T cells without further processing (apitope) (T cell clone MS60:D2): apitopes
